Organism: Cavia porcellus
Assay: Evaluated for muscarinic activity using guinea pig ilea
Type: functional

With `CC(=O)O[C@@H]1CC[C@H]1[N+](C)(C)C.[I-]` the ID50 was 68 nM.

Work on `CC(=O)O[C@H]1CC[C@H]1[N+](C)(C)C.[I-]` yielded an ID50 of 83 nM.

Source: ChEMBL document CHEMBL1122133, “(+/-)-cis-2-acetoxycyclobutyltrimethylammonium iodide: a semirigid analogue of acetylcholine” (1982)
